# Measured values as given in patent EP1072247A2, “Cosmetic and dermatological compositions based on o/w emulsions” (Beiersdorf Aktiengesellschaft, priority 1999, dated 2001).
# Experiment: Interfacial tension of lipids against water (measure of polarity)
# Assay type: physicochemical
# Conditions: lipids below 30 mN/m are regarded as polar
# From the text: Öle und Fette unterscheiden sich unter anderem in ihrer Polarität, welche schwierig zu definieren ist. Es wurde bereits vorgeschlagen, die Grenzflächenspannung gegenüber Wasser als Maß für den Polaritätsindex eines Öls bzw. einer Ölphase anzunehmen. Dabei gilt, daß die Polarität der betreffenden Ölphase um so größer ist, je niedriger die Grenzflächenspannung zwischen dieser Ölphase und Wasser ist. Erfindungsgemäß wird die Grenzflächenspannung als ein mögliches Maß für die Polarität einer gegebenen Ölkomponente angesehen.
# Die Grenzflächenspannung ist diejenige Kraft, die an einer gedachten, in der Grenzfläche zwischen zwei Phasen befindlichen Linie der Länge von einem Meter wirkt. Die physikalische Einheit für diese Grenzflächenspannung errechnet sich klassisch nach der Beziehung Kraft/Länge und wird gewöhnlich in mN/m (Millinewton geteilt durch Meter) wiedergegeben. Sie hat positives Vorzeichen, wenn sie das Bestreben hat, die Grenzfläche zu verkleinern. Im umgekehrten Falle hat sie negatives Vorzeichen. Als polar im Sinne der vorliegenden Erfindung werden Lipide angesehen, deren Grenzflächenspannung gegen Wasser weniger als 30 mN/m beträgt.
# Unpolare Öle sind beispielsweise solche, welche gewählt werden aus der Gruppe der verzweigten und unverzweigten Kohlenwasserstoffe und -wachse, insbesondere Vaseline (Petrolatum), Paraffinöl, Squalan und Squalen, Polyolefine und hydrogenierte Polyisobutene. […] Tabelle 1
row,Compound,Grenzflächenspannungen gegen Wasser
1,"CCCCCCCCOCCCCCCCC [Cetiol® OE, Dicaprylyl Ether]","22,1 mN/m"
2,"CCCCCCCCCCCCCCCCCC(=O)OC(C)C [Isopropylstearat, Isopropyl Stearate]","21,9 mN/m"
3,"CCCCCCCCOC(=O)CCCCCCCCCCCCCCC(C)C [Prisorine® 2036, Octyl Isostearate]","29,7 mN/m"
4,"CCCCCCCCCCCCCCCCCCOC(=O)CCCCCC [Tegosoft® SH, Stearyl Heptanoate]","28,7 mN/m"
5,"CCCCCCCC(=O)OCC(COC(=O)CCCCCCC)OC(=O)CCCCCCC [Trivent® OCG, Tricaprylin]","20,2 mN/m"
6,Octyl Palmitate [Cegesoft® C24],"23,1 mN/m"
7,Octyl Stearate [Cetiol® 868],"28,4 mN/m"
